The conditions of series [1]: plasma/blood, 120 mg dose of IR formulation; cited from earlier work.
A short description of series [2]: Early clinical studies: PK profile of Compound 1 given as immediate release (IR) formulation. Format: in vivo. The following applies: human, plasma, oral. Here is the method:
The formulations used in early clinical studies included a 0.1 mg/mL oral solution to support doses up to 5 mg; active-pharmaceutical-ingredient (API) in HPMC capsules for doses between 5 mg to 120 mg; and roller-compacted IR tablets of 10, 20 and 30 mg strength.
The pharmacokinetic (PK) profile of Compound 1 when administered as an immediate release (IR) formulation was characterized by rapid absorption and elimination with time to maximum concentration (Tmax) of approximately 2 hours post-dose. […] A majority of the systemic exposure to GSK2982772 was associated with the shorter half-life of 2-3 hours.

The structures appear in SMILES notation. Like-named read-outs stand apart in the source and are kept apart here.

As to `CN1C(=O)[C@@H](NC(=O)c2nnc(Cc3ccccc3)[nH]2)COc2ccccc21` [Compound 1, (S)-5-benzyl-N-(5-methyl-4-oxo-2,3,4,5-tetrahydrobenzo[b][1,4]oxazepin-3-yl)-4H-1,2,4-triazole-3-carboxamide], the t1/2 in series [1] is 2 to 3 h. Also, the half-life was in the range of 2 to 3 h in series [2] (phase until approximately 12 hours post-dose, read-out: elimination half-life (t1/2)) and 5 to 6 h in series [2] (read-out: slower terminal phase t1/2). In addition, the Tmax in series [2] (post-dose, read-out: time to maximum concentration (Tmax)) was about 2 h.

(Values after US20220218719A1, “MATRIX COMPOSITION COMPRISING (S)-5-BENZYL-N-(5-METHYL-4-OXO-2,3,4,5-TETRAHYDROBENZO[B][1,4]OXAZEPIN-3-YL)-4H-1,2,4-TRIAZOLE-3-CARBOXAMIDE” (GLAXOSMITHKLINE INTELLECTUAL PROPERTY DEVELOPMENT LIMITED, priority 2019, published 2022).)
